Results from ChEMBL document CHEMBL1201862, “PubChem BioAssay data set” (2004).
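Dose response: 5 concentrations. Exposure: 48 h. Format: 96-well plates. Endpoint: linear interpolation; highest concentration if not reached. GI50 = concentration required for 50% inhibition of growth.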 Active and inactive are the calls of the source. Rule as the data show it: active = GI50 up to about 1.1 µM and inactive = higher.

Columns and labels:
Assay in all cases: NCI-60 cell line screen, 48 h
OVCAR-8 = system: OVCAR-8
CAKI-1 = system: CAKI-1
SNB-75 = system: SNB-75
TK-10 = system: TK-10
SR = system: SR
KM12 = system: KM12
SK-MEL-2 = system: SK-MEL-2
LOX IMVI = system: LOX IMVI
SK-OV-3 = system: SK-OV-3
UACC-257 = system: UACC-257
HCT-116 = system: HCT-116
HOP-92 = system: HOP-92
SF-268 = system: SF-268
SF-539 = system: SF-539
A498 = system: A498
SK-MEL-5 = system: SK-MEL-5
DU-145 = system: DU-145
MDA-MB-435 = system: MDA-MB-435

Compound	GI50 (OVCAR-8)	GI50 (CAKI-1)	GI50 (SNB-75)	GI50 (TK-10)	GI50 (SR)	GI50 (KM12)	GI50 (SK-MEL-2)	GI50 (LOX IMVI)	GI50 (SK-OV-3)	GI50 (UACC-257)	GI50 (HCT-116)	GI50 (HOP-92)	GI50 (SF-268)	GI50 (SF-539)	GI50 (A498)	GI50 (SK-MEL-5)	GI50 (DU-145)	GI50 (MDA-MB-435)
CS/C(c1ccccc1)=[N+](\[O-])Cc1ccccc1	> 100 µM (inactive)	> 100 µM (inactive)	> 100 µM (inactive)	> 100 µM (inactive)	20 µM (inactive)	> 100 µM (inactive)	> 100 µM (inactive)	16.4 µM (inactive)	> 100 µM (inactive)	> 100 µM (inactive)	> 100 µM (inactive)	> 100 µM (inactive)	> 100 µM (inactive)	> 100 µM (inactive)	> 100 µM (inactive)	> 100 µM (inactive)	–	–
COc1ccc([C@H]2[C@@H]3CCc4ccccc4C3=NN2C(N)=S)cc1OC	74.3 µM (inactive)	–	–	> 100 µM (inactive)	27 µM (inactive)	47.9 µM (inactive)	50 µM (inactive)	32.6 µM (inactive)	> 100 µM (inactive)	45.5 µM (inactive)	47.9 µM (inactive)	35.4 µM (inactive)	85.9 µM (inactive)	> 100 µM (inactive)	> 100 µM (inactive)	–	–	–
CC/C(CC(=O)CCC(=O)Nc1c(C)cccc1C)=N\NC(=O)NN	> 100 µM (inactive)	–	–	> 100 µM (inactive)	> 100 µM (inactive)	> 100 µM (inactive)	> 100 µM (inactive)	–	–	> 100 µM (inactive)	> 100 µM (inactive)	> 100 µM (inactive)	> 100 µM (inactive)	> 100 µM (inactive)	> 100 µM (inactive)	> 100 µM (inactive)	–	–
CN(C)C(=O)Nc1c([N+](=O)[O-])cc(C(F)(F)F)cc1[N+](=O)[O-]	40.4 µM (inactive)	> 100 µM (inactive)	74 µM (inactive)	> 100 µM (inactive)	58.7 µM (inactive)	37 µM (inactive)	58.7 µM (inactive)	28.8 µM (inactive)	> 100 µM (inactive)	27.8 µM (inactive)	24.6 µM (inactive)	53.5 µM (inactive)	> 100 µM (inactive)	42 µM (inactive)	> 100 µM (inactive)	17.2 µM (inactive)	–	–
CCC1(Cl)C(=O)NC(=O)N(C2CC(O)C(CO)O2)C1N=[N+]=[N-] (stereo not drawn)	> 100 µM (inactive)	> 100 µM (inactive)	> 100 µM (inactive)	> 100 µM (inactive)	–	–	> 100 µM (inactive)	> 100 µM (inactive)	> 100 µM (inactive)	> 100 µM (inactive)	–	> 100 µM (inactive)	> 100 µM (inactive)	> 100 µM (inactive)	> 100 µM (inactive)	> 100 µM (inactive)	–	–
COc1cc2c(cc1OC)[C@@H](Nc1ccc(F)cc1)C1COC(=O)[C@@H]1C2c1cc(OC)c(O)c(OC)c1 (stereo partly drawn)	1.99 µM (inactive)	0.384 µM (active)	2.5 µM (inactive)	7.18 µM (inactive)	0.0421 µM (active)	2.77 µM (inactive)	5.42 µM (inactive)	0.671 µM (active)	1.56 µM (inactive)	5.53 µM (inactive)	3.56 µM (inactive)	–	2.1 µM (inactive)	0.594 µM (active)	1.14 µM (inactive)	1.93 µM (inactive)	–	–
COC(=O)CCC1CCc2c(OC)ccc(O)c2C1=O (stereo not drawn)	> 100 µM (inactive)	–	66.4 µM (inactive)	> 100 µM (inactive)	> 100 µM (inactive)	> 100 µM (inactive)	> 100 µM (inactive)	> 100 µM (inactive)	> 100 µM (inactive)	> 100 µM (inactive)	> 100 µM (inactive)	–	> 100 µM (inactive)	> 100 µM (inactive)	> 100 µM (inactive)	> 100 µM (inactive)	–	–
COc1ccc(-c2cc3ccccc3[nH]c2=O)cc1OC	> 100 µM (inactive)	> 100 µM (inactive)	> 100 µM (inactive)	> 100 µM (inactive)	> 100 µM (inactive)	> 100 µM (inactive)	> 100 µM (inactive)	> 100 µM (inactive)	> 100 µM (inactive)	> 100 µM (inactive)	> 100 µM (inactive)	–	> 100 µM (inactive)	> 100 µM (inactive)	–	–	–	–
COP1(=S)OCC2CCC[C@@H]2O1 (stereo partly drawn)	> 100 µM (inactive)	> 100 µM (inactive)	> 100 µM (inactive)	> 100 µM (inactive)	> 100 µM (inactive)	> 100 µM (inactive)	> 100 µM (inactive)	–	–	> 100 µM (inactive)	> 100 µM (inactive)	> 100 µM (inactive)	> 100 µM (inactive)	> 100 µM (inactive)	> 100 µM (inactive)	> 100 µM (inactive)	> 100 µM (inactive)	> 100 µM (inactive)
